Source: paper PMC11812184, “Antimicrobial triazinedione inhibitors of the translocase MraY–protein E interaction site: synergistic effects with bacitracin imply a new mechanism of action” (RSC Medicinal Chemistry, 2025)
Values after ≈ are worked out from the molar mass of the structure shown.

Tests used:
[1] = biological target: T1, translocase MraY (phospho-MurNAc-pentapeptide translocase) (Escherichia coli, UniProt P0A6W3); test: continuous fluorescence assay, % inhibition at […], overexpressed membranes; type: biochemical
T1 construct: membranes containing overexpressed E. coli MraY

[2] = test system: T2, Bacillus subtilis W23; test: microbe, parasite or virus in culture; design: broth microdilution growth inhibition, OD595, overnight; MIC50 = concentration reducing growth by 50%; conditions: MIC50, 50% growth reduction
T2 construct: W23
Method: (§1) P. fluorescens Pf-5, E. coli (TOP10 or C43), B. subtilis (W23) or M. flavus colonies were isolated from an agar plate and inoculated in 5 mL of Luria-Bertani broth overnight at 37 °C. E. coli C43/pET28a-mraY was grown in Luria-Bertani media containing 50 μg mL^−1 kanamycin. […] Serial dilutions of 125, 62.5, 31.25, 15.63, 7.82, 3.90, 1.95 and 0.97 μg mL^−1 test compound were prepared. 10 μL of water, MeOH and DMSO were added to separate wells to serve as a growth control. Each test condition was tested in triplicate. The 96-well plate was covered and incubated overnight at 30 or 37 °C. Optical density (OD595) was measured using a HIDEX Sense microplate reader 425–301. The inhibitor concentration which reduced the growth by 50% was measured as the MIC50 of the compound. The set of analogues were tested for antimicrobial activity against laboratory strains of E. coli K12, B. subtilis W23, and Pseudomonas fluorescens Pf-5.

[3] = test system: T3, Escherichia coli K12; test: microbe, parasite or virus in culture; design: broth microdilution growth inhibition, OD595, overnight; MIC50 = concentration reducing growth by 50%; conditions: MIC50, 50% growth reduction
T3 construct: K12
Method: as §1

[4] = test system: T4, Pseudomonas fluorescens Pf-5; test: microbe, parasite or virus in culture; design: broth microdilution growth inhibition, OD595, overnight; MIC50 = concentration reducing growth by 50%; conditions: PF5, MIC50, 50% growth reduction
T4 construct: Pf-5
Method: as §1

[5] = biological target: T5, translocase MraY (phospho-MurNAc-pentapeptide translocase) (Escherichia coli, UniProt P0A6W3); test: biochemical; design: continuous fluorescence enhancement assay, dansyl-UDPMurNAc-pentapeptide to dansyl-lipid I, membranes overexpressing E. coli MraY
T5 construct: membranes containing overexpressed E. coli MraY
T5 sequence (P0A6W3 1-360): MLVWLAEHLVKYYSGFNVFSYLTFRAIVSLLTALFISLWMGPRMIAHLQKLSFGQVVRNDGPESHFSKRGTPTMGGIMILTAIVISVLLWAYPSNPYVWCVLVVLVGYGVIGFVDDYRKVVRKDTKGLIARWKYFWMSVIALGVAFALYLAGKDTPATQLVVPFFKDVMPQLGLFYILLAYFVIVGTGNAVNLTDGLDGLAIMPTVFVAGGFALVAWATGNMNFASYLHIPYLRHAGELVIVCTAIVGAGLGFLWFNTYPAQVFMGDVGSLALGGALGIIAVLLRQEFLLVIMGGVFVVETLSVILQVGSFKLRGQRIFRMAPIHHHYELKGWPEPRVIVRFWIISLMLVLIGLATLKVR
Method: UDP-MurNAc-L-Ala-γ-D-Glu-L-Lys-D-Ala-D-Ala was prepared enzymatically using the methods described by Lloyd et al.,[32] and was converted to UDP-MurNAc-L-Ala-γ-D-Glu-L-Lys(Nε-dansyl)-D-Ala-D-Ala using the method of Brandish et al.[5] The MraY-catalysed reaction was monitored on a HIDEX Sense microplate reader 425–301 (λex 340 nm, λem 530 nm). To monitor the formation of dansyl-lipid I, membranes containing overexpressed E. coli MraY (15 μL of 0.6 mg mL^−1 stock) were incubated with UDP-MurNAc-L-Ala-γ-D-Glu-L-Lys(Nε-dansyl)-D-Ala-D-Ala (25 μM), undecaprenyl phosphate (30 μM, from stock solution in […] Tris buffer pH 7.5 containing 2 mM β-mercaptoethanol, 1 mM MgCl2, 20% glycerol, 0.5% Triton X-100), in 100 mM Tris buffer pH 7.5 containing 25 mM MgCl2, in a total volume of 100 μL. Test compounds were assayed at 200 μM final concentration, in triplicate assays, and compound 6d was assayed at 25–200 μM concentration in triplicate assays. Tunicamycin (20 μM) was used as a positive control for enzyme inhibition assays. Membranes containing overexpressed E. coli R288L mutant MraY were prepared as described in Rodolis et al.[16] Radiochemical assays were carried out using membranes containing overexpressed E. coli MraY as described in Mihalyi et al.[19] The set of analogues were assayed against particulate E. coli MraY from overexpressed membranes, using a fluorescence enhancement assay with fluorescent substrate UDPMurNAc-L-Ala-γ-D-Glu-L-Lys(ε-N-dansyl)-D-Ala-D-Ala, used previously to assay MraY.[5,16,17]

[6] = biological target: T1, translocase MraY (phospho-MurNAc-pentapeptide translocase); test: continuous fluorescence assay with dansyl-UDPMurNAc-pentapeptide, overexpressed membranes; type: biochemical
Source text: continuous fluorescence assay with dansyl-UDPMurNAc-pentapeptide, overexpressed membranes on translocase MraY (phospho-MurNAc-pentapeptide translocase) | highest enzyme inhibition shown by compound 6d.

CCCCCCCCn1c(=O)nc(NCCNC(=N)N)n(Cc2ccccc2OC)c1=O [7d]
inhibition at 200 µM [1]: 57% | MIC50 [2]: 4 µg/mL (≈ 8.98 µM) | MIC50 [3]: 16 µg/mL (≈ 35.9 µM) | MIC50 [4]: > 256 µg/mL

CCCCCCCCn1c(=O)nc(NCCNC(=N)N)n(Cc2cccc(OC)c2)c1=O [7c]
inhibition at 200 µM [1]: 57% | MIC50 [2]: 4 µg/mL (≈ 8.98 µM) | MIC50 [3]: 16 µg/mL (≈ 35.9 µM) | MIC50 [4]: 32 µg/mL (≈ 71.8 µM)

CCCCCCCCn1c(=O)nc(NCCN)n(Cc2ccc(C(F)(F)F)cc2)c1=O [6j]
inhibition at 200 µM [1]: 59% | MIC50 [2]: 32 µg/mL (≈ 72.5 µM) | MIC50 [3]: 64 µg/mL (≈ 145 µM) | MIC50 [4]: > 256 µg/mL

CCCCCCCCn1c(=O)nc(NCCN)n(Cc2ccc(OC)cc2)c1=O [6b]
MIC50 [2]: 8 µg/mL (≈ 19.8 µM) | MIC50 [3]: 16 µg/mL (≈ 39.7 µM) | MIC50 [4]: 32 µg/mL (≈ 79.3 µM) | inhibition at 200 µM ([5]; continuous fluorescence assay): 50%

CCCCCCCCn1c(=O)nc(NCCN)n(Cc2ccccc2OC)c1=O [6d]
IC50 [6]: 48 µM | MIC50 [2]: 32 µg/mL (≈ 79.3 µM) | MIC50 [3]: 64 µg/mL (≈ 159 µM) | MIC50 [4]: > 256 µg/mL | inhibition at 200 µM ([5]; read-out: % MraY inhibition @200 μM): 80%

CCCCCCCCn1c(=O)nc(NCCNC(=N)N)n(Cc2ccc(Cl)cc2)c1=O [7f]
MIC50 [2]: 8 µg/mL (≈ 17.8 µM) | MIC50 [3]: 8 µg/mL (≈ 17.8 µM) | MIC50 [4]: 32 µg/mL (≈ 71.1 µM) | inhibition at 200 µM ([5]; continuous fluorescence assay): 42%

CCCCCCCCn1c(=O)nc(NCCNC(=N)N)n(Cc2ccccc2)c1=O [7a]
MIC50 [2]: 8 µg/mL (≈ 19.3 µM) | MIC50 [3]: 16 µg/mL (≈ 38.5 µM) | MIC50 [4]: 32 µg/mL (≈ 77 µM) | inhibition at 200 µM ([5]; continuous fluorescence assay): 41%

CCCCCCCCn1c(=O)nc(NCCN)n(Cc2ccc([N+](=O)[O-])cc2)c1=O [6h]
inhibition at 200 µM [1]: 63% | MIC50 [2]: 32 µg/mL (≈ 76.5 µM) | MIC50 [3]: 64 µg/mL (≈ 153 µM) | MIC50 [4]: > 256 µg/mL

CCCCCCCCn1c(=O)nc(NCCNC(=N)N)n(Cc2ccc(OC)cc2)c1=O [7b]
MIC50 [2]: 2 µg/mL (≈ 4.49 µM) | MIC50 [3]: 16 µg/mL (≈ 35.9 µM) | MIC50 [4]: 32 µg/mL (≈ 71.8 µM) | inhibition at 200 µM ([5]; continuous fluorescence assay): 48%

CCCCCCCCn1c(=O)nc(NCCN)n(C(CCc2ccccc2)c2ccccc2)c1=O (stereo not shown) [compound 13, 13]
inhibition at 200 µM [1]: 64% | MIC50 [2]: 128 µg/mL (≈ 268 µM) | MIC50 [3]: 256 µg/mL (≈ 536 µM)

CCCCCCCCn1c(=O)nc(NCCNC(=N)N)n(Cc2ccc(Br)cc2)c1=O [7g]
inhibition at 200 µM [1]: 51% | MIC50 [2]: 4 µg/mL (≈ 8.09 µM) | MIC50 [3]: 16 µg/mL (≈ 32.4 µM) | MIC50 [4]: 256 µg/mL (≈ 518 µM)

CCCCCCCCn1c(=O)nc(NCCNC(=N)N)n(Cc2ccc([N+](=O)[O-])cc2)c1=O [7h]
inhibition at 200 µM [1]: 70% | MIC50 [2]: 32 µg/mL (≈ 69.5 µM) | MIC50 [3]: 64 µg/mL (≈ 139 µM) | MIC50 [4]: 256 µg/mL (≈ 556 µM)

CCCCCCCCn1c(=O)nc(NCCN)n(Cc2ccccc2)c1=O [6a]
MIC50 [2]: 8 µg/mL (≈ 21.4 µM) | MIC50 [3]: 16 µg/mL (≈ 42.8 µM) | MIC50 [4]: 64 µg/mL (≈ 171 µM) | inhibition at 200 µM ([5]; continuous fluorescence assay): 36%

CCCCCCCCn1c(=O)nc(NCCN)n(Cc2cccc(OC)c2)c1=O [6c]
MIC50 [2]: 32 µg/mL (≈ 79.3 µM) | MIC50 [3]: 64 µg/mL (≈ 159 µM) | MIC50 [4]: > 256 µg/mL | inhibition at 200 µM ([5]; continuous fluorescence assay): 42%

CCCCCCCCn1c(=O)nc(NCCN)n(Cc2ccc(Cl)cc2)c1=O [6f]
MIC50 [2]: 4 µg/mL (≈ 9.81 µM) | MIC50 [3]: 8 µg/mL (≈ 19.6 µM) | MIC50 [4]: 64 µg/mL (≈ 157 µM) | inhibition at 200 µM ([5]; continuous fluorescence assay): 15%

CCCCCCCCn1c(=O)nc(NCCN)n(Cc2ccc(Br)cc2)c1=O [6g]
inhibition at 200 µM [1]: 68% | MIC50 [2]: 16 µg/mL (≈ 35.4 µM) | MIC50 [3]: 16 µg/mL (≈ 35.4 µM) | MIC50 [4]: 64 µg/mL (≈ 141 µM)

CCCCCCCCn1c(=O)nc(NCCNC(=N)N)n(Cc2ccc(C(F)(F)F)cc2)c1=O [7j]
MIC50 [2]: 1 µg/mL (≈ 2.07 µM) | MIC50 [3]: 4 µg/mL (≈ 8.27 µM) | MIC50 [4]: 16 µg/mL (≈ 33.1 µM) | inhibition at 200 µM ([5]; continuous fluorescence assay): 43%

CCCCCCCCn1c(=O)nc(NCCN)n(Cc2ccc(F)cc2)c1=O [6e]
MIC50 [2]: 32 µg/mL (≈ 81.7 µM) | MIC50 [3]: 64 µg/mL (≈ 163 µM) | MIC50 [4]: 128 µg/mL (≈ 327 µM) | inhibition at 200 µM ([5]; continuous fluorescence assay): 35%

CCCCCCCCn1c(=O)nc(NCCNC(=N)N)n(Cc2ccc(F)cc2)c1=O [7e]
inhibition at 200 µM [1]: 63% | MIC50 [2]: 4 µg/mL (≈ 9.23 µM) | MIC50 [3]: 16 µg/mL (≈ 36.9 µM) | MIC50 [4]: 32 µg/mL (≈ 73.8 µM)

CCCCCCCCn1c(=O)nc(NCCNC(N)=O)n(Cc2ccccc2)c1=O [compound 12]
MIC50 [2]: 128 µg/mL (≈ 307 µM) | MIC50 [3]: 64 µg/mL (≈ 154 µM) | inhibition at 200 µM ([5]; continuous fluorescence assay): 39%

CCCCCCCCn1c(=O)nc(NCCO)n(Cc2ccccc2)c1=O [compound 11]
MIC50 [2]: > 256 µg/mL | MIC50 [3]: > 256 µg/mL | inhibition at 200 µM ([5]; continuous fluorescence assay): 39%
